Experimental data reported in patent US9949972B2, “Combinations of histone deacetylase inhibitors and immunomodulatory drugs” (Acetylon Pharmaceuticals, Inc., priority 2013, dated 2018).

Columns and labels:
[1] = test system: Jeko1 mantle cell lymphoma cells; assay: Cell cycle inhibition, Jeko1 cells; assay type: cell-based; details: 4 days, Compound B 2 μM, Lenalidomide 2 μM, Pomalidomide 1 μM
[2] = test system: Mino mantle cell lymphoma cells; assay: Cell cycle inhibition, Mino cells; assay type: cell-based; details: 4 days, Compound A or B 2 μM, Lenalidomide 2 μM, Pomalidomide 1 μM
HDAC6 = target: T1, HDAC6 (Homo sapiens, UniProt Q9UBN7); assay: HDAC enzyme assays (selectivity); assay type: biochemical; details: HDAC6 vs class I HDACs
T1 construct: purchased BPS Biosciences
T1 sequence (Q9UBN7 1-1215): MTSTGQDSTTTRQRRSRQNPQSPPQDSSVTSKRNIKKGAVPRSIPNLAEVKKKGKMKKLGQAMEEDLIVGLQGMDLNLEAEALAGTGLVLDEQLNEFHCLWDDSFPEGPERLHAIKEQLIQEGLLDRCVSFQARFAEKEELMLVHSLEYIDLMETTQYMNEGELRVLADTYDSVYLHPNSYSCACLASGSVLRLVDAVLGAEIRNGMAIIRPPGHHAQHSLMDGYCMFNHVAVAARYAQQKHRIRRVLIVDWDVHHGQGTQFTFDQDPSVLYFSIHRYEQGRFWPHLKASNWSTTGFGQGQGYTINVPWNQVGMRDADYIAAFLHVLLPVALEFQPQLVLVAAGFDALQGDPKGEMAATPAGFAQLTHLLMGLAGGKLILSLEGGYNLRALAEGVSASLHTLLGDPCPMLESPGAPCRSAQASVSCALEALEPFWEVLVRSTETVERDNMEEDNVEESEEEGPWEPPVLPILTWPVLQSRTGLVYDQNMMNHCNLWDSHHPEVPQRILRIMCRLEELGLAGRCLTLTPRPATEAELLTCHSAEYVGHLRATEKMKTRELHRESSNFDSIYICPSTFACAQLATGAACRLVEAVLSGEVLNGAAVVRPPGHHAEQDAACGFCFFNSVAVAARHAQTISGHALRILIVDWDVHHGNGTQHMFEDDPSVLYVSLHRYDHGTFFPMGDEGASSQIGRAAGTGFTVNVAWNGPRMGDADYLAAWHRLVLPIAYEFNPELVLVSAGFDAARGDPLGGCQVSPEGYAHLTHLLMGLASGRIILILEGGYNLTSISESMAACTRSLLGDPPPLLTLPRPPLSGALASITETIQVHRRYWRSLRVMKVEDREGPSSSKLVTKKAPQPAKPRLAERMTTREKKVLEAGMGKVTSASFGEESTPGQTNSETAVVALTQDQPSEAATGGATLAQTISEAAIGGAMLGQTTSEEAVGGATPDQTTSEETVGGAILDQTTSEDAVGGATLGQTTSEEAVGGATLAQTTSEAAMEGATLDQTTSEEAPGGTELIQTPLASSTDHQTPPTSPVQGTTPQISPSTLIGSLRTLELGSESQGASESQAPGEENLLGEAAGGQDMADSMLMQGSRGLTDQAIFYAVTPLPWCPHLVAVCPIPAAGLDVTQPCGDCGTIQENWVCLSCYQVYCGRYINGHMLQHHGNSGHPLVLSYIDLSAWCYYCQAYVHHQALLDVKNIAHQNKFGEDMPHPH
Method: Compounds for testing were diluted in DMSO to 50 fold the final concentration and a ten point three fold dilution series was made. The compounds were diluted in assay buffer (50 mM HEPES, pH 7.4, 100 mM KCl, 0.001% Tween-20, 0.05% BSA, 20 μM TCEP) to 6 fold their final concentration. The HDAC enzymes (purchased from BPS Biosciences) were diluted to 1.5 fold their final concentration in assay buffer. The tripeptide substrate and trypsin at 0.05 μM final concentration were diluted in assay buffer at 6 fold their final concentration. The final enzyme concentrations used in these assays were 3.3 ng/ml (HDAC1), 0.2 ng/ml (HDAC2), 0.08 ng/ml (HDAC3) and 2 ng/ml (HDAC6). […] Five μl of compound and 20 μl of enzyme were added to wells of a black, opaque 384 well plate in duplicate. Enzyme and compound were incubated together at room temperature for 10 minutes. Five μl of substrate was added to each well, the plate was shaken for 60 seconds and placed into a Victor 2 microtiter plate reader. The development of fluorescence was monitored for 60 min and the linear rate of the reaction was calculated. The IC50 was determined using Graph Pad Prism by a four parameter curve fit.

| Compound | cell cycle progression [1] | cell cycle progression [2] | selectivity for HDAC6 over class I HDAC's (HDAC6) |
| --- | --- | --- | --- |
| O=C(CCCCCCNC(=O)c1cnc(N(c2ccccc2)c2ccccc2Cl)nc1)NO [Compound B, 2-((2-chlorophenyl)(phenyl)amino)-N-(7-(hydroxyamino)-7-oxoheptyl)pyrimidine-5-carboxamide] | decreased cell cycle progression | decreased cell cycle progression | – |
| O=C(NO)c1cnc(NC2(c3cccc(F)c3)CCCCC2)nc1 [Compound C, 2-((1-(3-fluorophenyl)cyclohexyl)amino)-N-hydroxypyrimidine-5-carboxamide] | – | – | more than 300 fold |
| O=C(CCCCCCNC(=O)c1cnc(N(c2ccccc2)c2ccccc2)nc1)NO [Compound A, 2-(diphenylamino)-N-(7-(hydroxyamino)-7-oxoheptyl)pyrimidine-5-carboxamide] | – | decreased cell cycle progression | approximately 11 fold |
